From the supplement of paper PMC8149375

Experiments:
Conditions in all cases: treatment: drug + dasatinib (fixed dose, not stated); 5 days
769-P [1] = experiment: GI50 of drug in presence of dasatinib; higher = less potent
Method: (§1)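 Primary HTS combination arm: 8 RCC cell lines treated with 8 doses (up to 10 uM) of each library drug plus a fixed dose of dasatinib (dose not stated) for 5 days; viability read by CellTiter-Glo and normalised to DMSO. GI50 was fitted with XLfit, AUC is the area under the dose-response curve, and minimum viability is the lowest fraction of DMSO viability across doses.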

786-O [2] = experiment: as above
Method: as §1

A498 [3] = experiment: as above
Method: as §1

ACHN [4] = experiment: as above
Method: as §1

CAKI-1 [5] = experiment: as above
Method: as §1

SN12C [6] = experiment: as above
Method: as §1

TK-10 [7] = experiment: as above
Method: as §1

UO-31 [8] = experiment: as above
Method: as §1

769-P [9] = experiment: minimum viability across doses, drug + dasatinib, relative to DMSO (fraction); higher = less growth inhibition
Method: as §1

786-O [10] = experiment: as above
Method: as §1

A498 [11] = experiment: as above
Method: as §1

ACHN [12] = experiment: as above
Method: as §1

CAKI-1 [13] = experiment: as above
Method: as §1

SN12C [14] = experiment: as above
Method: as §1

TK-10 [15] = experiment: as above
Method: as §1

UO-31 [16] = experiment: as above
Method: as §1

769-P [17] = experiment: AUC of dose-response viability curve, drug + dasatinib, normalised to DMSO (arbitrary (AUC of normalised viability)); higher = less growth inhibition
Method: as §1

786-O [18] = experiment: as above
Method: as §1

A498 [19] = experiment: as above
Method: as §1

ACHN [20] = experiment: as above
Method: as §1

CAKI-1 [21] = experiment: as above
Method: as §1

SN12C [22] = experiment: as above
Method: as §1

TK-10 [23] = experiment: as above
Method: as §1

UO-31 [24] = experiment: as above
Method: as §1

Row | Compound | GI50 of drug (786-O [2]) | GI50 of drug (ACHN [4]) | GI50 of drug (769-P [1]) | GI50 of drug (A498 [3]) | GI50 of drug (CAKI-1 [5]) | GI50 of drug (SN12C [6]) | GI50 of drug (TK-10 [7]) | GI50 of drug (UO-31 [8]) | minimum viability across doses (769-P [9]) | minimum viability across doses (786-O [10]) | minimum viability across doses (A498 [11]) | minimum viability across doses (ACHN [12]) | minimum viability across doses (CAKI-1 [13]) | minimum viability across doses (SN12C [14]) | minimum viability across doses (TK-10 [15]) | minimum viability across doses (UO-31 [16]) | AUC of dose-response viability curve (769-P [17]) | AUC of dose-response viability curve (786-O [18]) | AUC of dose-response viability curve (A498 [19]) | AUC of dose-response viability curve (ACHN [20]) | AUC of dose-response viability curve (CAKI-1 [21]) | AUC of dose-response viability curve (SN12C [22]) | AUC of dose-response viability curve (TK-10 [23]) | AUC of dose-response viability curve (UO-31 [24])
1 | CCC[C@H](NC(=O)/C(C#N)=C/c1cccc(Br)n1)c1ccccc1 [WP1130] + Cc1nc(Nc2ncc(C(=O)Nc3c(C)cccc3Cl)s2)cc(N2CCN(CCO)CC2)n1 [dasatinib] | 0.279 µM | 4.37 µM | 3.1 µM | 4.1 µM | 2.19 µM | 3.93 µM | 4.75 µM | 4.24 µM | 0.0169 | 0.00681 | 0.02 | 0.00233 | 0.0305 | 0.00838 | 0.191 | 0.0123 | 2.25 | 1.79 | 2.69 | 1.95 | 2.12 | 2.37 | 2.43 | 3.53
2 | COC(=O)Nc1ccc(-c2nc(N3CCOCC3)c3cnn(C4CCN(C(=O)OC)CC4)c3n2)cc1 [WYE-354] + Cc1nc(Nc2ncc(C(=O)Nc3c(C)cccc3Cl)s2)cc(N2CCN(CCO)CC2)n1 [dasatinib] | 0.381 µM | 0.0747 µM | 0.457 µM | 1.98 µM | 0.345 µM | 0.8 µM | 0.329 µM | 0.894 µM | 0.122 | 0.307 | 0.262 | 0.0892 | 0.0632 | 0.215 | 0.208 | 0.019 | 1.84 | 1.76 | 2.63 | 1.33 | 1.71 | 2.08 | 1.83 | 2.63
3 | COC[C@H]1OC(=O)c2coc3c2[C@@]1(C)C1=C(C3=O)[C@@H]2CCC(=O)[C@@]2(C)C[C@@H]1OC(C)=O [Wortmannin] + Cc1nc(Nc2ncc(C(=O)Nc3c(C)cccc3Cl)s2)cc(N2CCN(CCO)CC2)n1 [dasatinib] | 0.0325 µM | 0.0414 µM | > 10 µM | 0.0848 µM | 0.0158 µM | 0.0534 µM | > 10 µM | > 10 µM | 0.487 | 0.00996 | 0.153 | 0.425 | 0.123 | 0.342 | 0.633 | 0.688 | 2.25 | 1.62 | 2.76 | 1.87 | 1.38 | 2.16 | 2.46 | 2.3
4 | Cc1ccc(S(=O)(=O)Nc2nc3ccccc3nc2Nc2ccc3nsnc3c2)cc1 [XL147] + Cc1nc(Nc2ncc(C(=O)Nc3c(C)cccc3Cl)s2)cc(N2CCN(CCO)CC2)n1 [dasatinib] | > 10 µM | > 10 µM | > 10 µM | > 10 µM | > 10 µM | > 10 µM | > 10 µM | > 10 µM | 0.634 | 0.642 | 0.924 | 0.551 | 0.764 | 0.651 | 0.743 | 0.909 | 2.42 | 2.67 | 3.43 | 2.12 | 2.82 | 2.42 | 2.87 | 3.44
5 | COc1cc2nccc(Oc3ccc(NC(=O)C4(C(=O)Nc5ccc(F)cc5)CC4)cc3)c2cc1OC [XL-184 free base (Cabozantinib)] + Cc1nc(Nc2ncc(C(=O)Nc3c(C)cccc3Cl)s2)cc(N2CCN(CCO)CC2)n1 [dasatinib] | 0.0295 µM | 0.267 µM | 2 µM | 8.99 µM | 0.193 µM | 0.915 µM | 2.77 µM | 1.84 µM | 0.135 | 0.25 | 0.442 | 0.0617 | 0.0187 | 0.213 | 0.136 | 0.0162 | 2.07 | 2.2 | 3.34 | 1.6 | 1.76 | 2.07 | 2.33 | 2.75
6 | COCC[n+]1c2c(n(Cc3cnccn3)c1C)C(=O)c1ccccc1C2=O [YM155] + Cc1nc(Nc2ncc(C(=O)Nc3c(C)cccc3Cl)s2)cc(N2CCN(CCO)CC2)n1 [dasatinib] | > 10 µM | 0.00543 µM | 0.0107 µM | 0.00838 µM | 0.00486 µM | 0.00839 µM | 0.0144 µM | 0.045 µM | 0.00674 | 0.00497 | 0.00896 | 0.00126 | 0.00438 | 0.00231 | 0.0206 | 0.00698 | 0.63 | 0.302 | 0.476 | 0.479 | 0.385 | 0.503 | 0.933 | 1.3
7 | FC(F)c1nc2ccccc2n1-c1nc(N2CCOCC2)nc(N2CCOCC2)n1 [ZSTK474] + Cc1nc(Nc2ncc(C(=O)Nc3c(C)cccc3Cl)s2)cc(N2CCN(CCO)CC2)n1 [dasatinib] | 0.118 µM | 0.102 µM | 0.169 µM | 1.09 µM | 0.0445 µM | 0.42 µM | 0.328 µM | 0.194 µM | 0.0686 | 0.00535 | 0.0549 | 0.0709 | 0.0415 | 0.159 | 0.115 | 0.00787 | 1.61 | 1.61 | 2.35 | 1.45 | 1.37 | 1.99 | 1.97 | 1.73

Now from value to compound, other results behind:

Row | GI50 of drug (786-O [2]) | GI50 of drug (ACHN [4]) | Compound | GI50 of drug (769-P [1]) | GI50 of drug (A498 [3]) | GI50 of drug (CAKI-1 [5]) | GI50 of drug (SN12C [6]) | GI50 of drug (TK-10 [7]) | GI50 of drug (UO-31 [8]) | minimum viability across doses (769-P [9]) | minimum viability across doses (786-O [10]) | minimum viability across doses (A498 [11]) | minimum viability across doses (ACHN [12]) | minimum viability across doses (CAKI-1 [13]) | minimum viability across doses (SN12C [14]) | minimum viability across doses (TK-10 [15]) | minimum viability across doses (UO-31 [16]) | AUC of dose-response viability curve (769-P [17]) | AUC of dose-response viability curve (786-O [18]) | AUC of dose-response viability curve (A498 [19]) | AUC of dose-response viability curve (ACHN [20]) | AUC of dose-response viability curve (CAKI-1 [21]) | AUC of dose-response viability curve (SN12C [22]) | AUC of dose-response viability curve (TK-10 [23]) | AUC of dose-response viability curve (UO-31 [24])
8 | 0.618 µM | 0.0833 µM | COC(=O)Nc1ccc(-c2nc(N3CCOCC3)c3cnn(C4CCN(Cc5cccnc5)CC4)c3n2)cc1 [WYE-687] + Cc1nc(Nc2ncc(C(=O)Nc3c(C)cccc3Cl)s2)cc(N2CCN(CCO)CC2)n1 [dasatinib] | 0.481 µM | 2.28 µM | 0.153 µM | 0.414 µM | 0.231 µM | 0.572 µM | 0.074 | 0.212 | 0.251 | 0.0388 | 0.0365 | 0.13 | 0.058 | 0.00676 | 1.81 | 2.02 | 2.89 | 1.38 | 1.51 | 1.78 | 1.79 | 2.8
9 | 0.878 µM | 0.0723 µM | C=CC(=O)Nc1cccc(Oc2nc(Nc3ccc(N4CCN(C)CC4)cc3)ncc2Cl)c1 [WZ3146] + Cc1nc(Nc2ncc(C(=O)Nc3c(C)cccc3Cl)s2)cc(N2CCN(CCO)CC2)n1 [dasatinib] | 0.523 µM | 3.06 µM | 0.345 µM | 0.997 µM | 0.373 µM | 0.553 µM | 0.056 | 0.0305 | 0.301 | 0.034 | 0.00112 | 0.0852 | 0.0372 | 0.00923 | 1.85 | 1.88 | 2.76 | 1.21 | 1.47 | 1.92 | 1.76 | 2.32
10 | 1.48 µM | 0.127 µM | C=CC(=O)Nc1cccc(Sc2nc(Nc3ccc(N4CCN(C)CC4)cc3)ncc2Cl)c1 [WZ8040] + Cc1nc(Nc2ncc(C(=O)Nc3c(C)cccc3Cl)s2)cc(N2CCN(CCO)CC2)n1 [dasatinib] | 1.16 µM | 8.3 µM | 1.65 µM | 3.88 µM | 0.652 µM | 2.34 µM | 0.0198 | 0.00713 | 0.113 | 0.00268 | 0.00162 | 0.00446 | 0.0196 | 0.0164 | 2.02 | 2.05 | 3.23 | 1.5 | 1.96 | 2.18 | 1.96 | 2.72
11 | < 0.003 µM | 3.24 µM | O=C(O)c1ccc2c(c1)nc(Nc1cccc(Cl)c1)c1ccncc12 [cx-4945 (Silmitasertib)] + Cc1nc(Nc2ncc(C(=O)Nc3c(C)cccc3Cl)s2)cc(N2CCN(CCO)CC2)n1 [dasatinib] | > 10 µM | > 10 µM | 1.27 µM | > 10 µM | > 10 µM | > 10 µM | 0.595 | 0.313 | 0.47 | 0.169 | 0.033 | 0.642 | 0.645 | 0.865 | 2.44 | 1.99 | 2.87 | 2.01 | 2.12 | 2.52 | 2.54 | 4.08
